Data on 23 molecules can be found in patent US20090270350A1, “Pyridinone Pyrazole Urea and Pyrimidinone Pyrazole Urea Derivatives” (PFIZER INC., priority 2006, published 2009).

Structures are written as SMILES.

Sequence of p38α (Q16539 whole entry): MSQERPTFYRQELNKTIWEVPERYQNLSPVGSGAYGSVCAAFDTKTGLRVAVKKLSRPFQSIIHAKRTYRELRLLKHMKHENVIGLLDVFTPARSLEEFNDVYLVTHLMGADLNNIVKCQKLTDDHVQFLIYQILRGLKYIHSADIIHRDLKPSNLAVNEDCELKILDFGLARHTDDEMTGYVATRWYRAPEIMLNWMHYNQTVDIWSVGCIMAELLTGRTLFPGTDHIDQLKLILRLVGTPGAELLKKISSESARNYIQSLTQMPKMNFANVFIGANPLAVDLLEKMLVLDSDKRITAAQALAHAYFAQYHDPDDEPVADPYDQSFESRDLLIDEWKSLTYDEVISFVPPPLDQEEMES

The assay concerns the target p38α (Homo sapiens, UniProt Q16539). Kind of assay: p38α/MK2 cascade assay. The assay is classed as biochemical. Conditions: Table 1; inhibitors preincubated with p38α for 40 minutes; phosphorylation of Hsp27 peptide by MK-2, Caliper LabChip 3000; read-out: p38a/MK2 Cascade 40 min Pre-Incuabtion (% Inhibition): IC50. The protocol:
The ability of compounds to inhibit activated p38α was determined in a p38α/MK-2 cascade assay format. The kinase activity of p38α is determined by its ability to phosphorylate/activate nonactive MK2 (54-400). Activation of MK-2 by p38α is measured by following the phosphorylation of a MK-2 specific peptide, Hsp27 peptide (FITC-KKKALSRQLSVAA). The phosphorylation of the Hsp27 peptide was quantified using the Caliper LabChip 3000. The kinase reactions were carried out in 20 mM HEPES pH 7.5, 10 mM MgCl2, 0.0005% Tween-20, 0.01% BSA, 1 mM DTT, and 2% DMSO. The inhibitors were varied between 1000-0.05 nM, while the Hsp27 peptide substrate, MgATP, and nonactive MK-2 (54-400) were held constant at 0.5 µM, 5 µM, and 1 nM, respectively. Inhibitors were preincubated with p38α for 40 minutes prior to initiating the reaction with peptide, MgATP, and MK-2. The kinase reactions were quenched after 60 minutes by the addition of stop buffer (180 mM HEPES, 30 mM EDTA, and 0.2% Coating Reagent-3).
The above protocol assay was used to determine the IC50 values for some of the compounds in the above Examples.
IC50 values were determined for the compounds listed in Table 2, using the same p38α/MK2 cascade assay used to determine the IC50 values for the compounds in Table 1. The compounds of Table 2 were prepared using methods similar to those listed in the Examples for compounds of Table 1.
Regarding `COc1ccc(Cn2c(C)cc(OCc3ccccc3CNC(=O)Nc3cc(C(C)(C)C)nn3-c3ccc(O)c(Cl)c3)c(Cl)c2=O)cc1` [Example 58, 1-[3-tert-butyl-1-(3-chloro-4-hydroxyphenyl)-1H-pyrazol-5-yl]-3-[2-({[3-chloro-1-(4-methoxybenzyl)-6-methyl-2-oxo-1,2-dihydropyridin-4-yl]oxy}methyl)benzyl]urea], the IC50 turned out to be 4.6 nM.
Next, `COc1ccc(Cn2c(C)cc(OCc3ccc(F)cc3CNC(=O)Nc3cc(C(C)(C)C)nn3-c3cccc(OCCO)c3)c(Cl)c2=O)cc1` [Example 60, 1-{3-tert-butyl-1-[3-(2-hydroxyethoxy)phenyl]-1H-pyrazol-5-yl}-3-[2-({[3-chloro-1-(4-methoxybenzyl)-6-methyl-2-oxo-1,2-dihydropyridin-4-yl]oxy}methyl)-5-fluorobenzyl]urea]: 3.7 nM.
As to `COc1ccc(Cn2c(C)cc(OCc3ccc(F)cc3CNC(=O)Nc3cc(C(C)(C)C)nn3-c3ccc(O)c(Cl)c3)c(Cl)c2=O)cc1` [Example 62, 1-[3-tert-butyl-1-(3-chloro-4-hydroxyphenyl)-1H-pyrazol-5-yl]-3-[2-({[3-chloro-1-(4-methoxybenzyl)-6-methyl-2-oxo-1,2-dihydropyridin-4-yl]oxy}methyl)-5-fluorobenzyl]urea], the IC50 is 4.5 nM.
Next, `COc1ccc(Cn2c(C)cc(OCc3ccccc3CNC(=O)Nc3cc(C(C)(C)C)nn3-c3ccc(O)cc3)c(Cl)c2=O)cc1Cl` [Example 64, 1-[3-tert-butyl-1-(4-hydroxyphenyl)-1H-pyrazol-5-yl]-3-[2-({[3-chloro-1-(3-chloro-4-methoxybenzyl)-6-methyl-2-oxo-1,2-dihydropyridin-4-yl]oxy}methyl)benzyl]urea]: 7.5 nM.
With `COc1ccc(Cn2c(C)cc(OCc3ccccc3CNC(=O)Nc3cc(C(C)(C)C)nn3-c3cccc(O)c3)c(Cl)c2=O)cc1Cl` [Example 65, 1-[3-tert-butyl-1-(3-hydroxyphenyl)-1H-pyrazol-5-yl]-3-[2-({[3-chloro-1-(3-chloro-4-methoxybenzyl)-6-methyl-2-oxo-1,2-dihydropyridin-4-yl]oxy}methyl)benzyl]urea], the IC50 is 6.9 nM.
Turning to `COc1ccc(Cn2c(C)cc(OCc3ccccc3CNC(=O)Nc3cc(C(C)(C)C)nn3-c3ccc(O)c(Cl)c3)c(Cl)c2=O)cc1Cl` [Example 66, 1-[3-tert-butyl-1-(3-chloro-4-hydroxyphenyl)-1H-pyrazol-5-yl]-3-[2-({[3-chloro-1-(3-chloro-4-methoxybenzyl)-6-methyl-2-oxo-1,2-dihydropyridin-4-yl]oxy}methyl)benzyl]urea], the IC50 came out at 9.7 nM.
For `COc1ccc(Cn2c(C)cc(OCc3ccccc3CNC(=O)Nc3cc(C(C)(C)C)nn3-c3ccc(Cl)c(O)c3)c(Cl)c2=O)cc1Cl` [Example 67, 1-[3-tert-butyl-1-(4-chloro-3-hydroxyphenyl)-1H-pyrazol-5-yl]-3-[2-({[3-chloro-1-(3-chloro-4-methoxybenzyl)-6-methyl-2-oxo-1,2-dihydropyridin-4-yl]oxy}methyl)benzyl]urea], the IC50 was 7.9 nM.
On to `COc1cc(Cn2c(C)cc(OCc3ccccc3CNC(=O)Nc3cc(C(C)(C)C)nn3-c3cccc(O)c3)c(Cl)c2=O)ccc1Cl` [Example 81, 1-[3-tert-butyl-1-(3-hydroxyphenyl)-1H-pyrazol-5-yl]-3-[2-({[3-chloro-1-(4-chloro-3-methoxybenzyl)-6-methyl-2-oxo-1,2-dihydropyridin-4-yl]oxy}methyl)benzyl]urea], for which the IC50 is 20.1 nM.
With `COc1ccc(Cn2c(C)cc(OCc3ccccc3CNC(=O)Nc3cc(C(C)(C)C)nn3-c3cccc(F)c3)c(Br)c2=O)cc1` [Example 97, 1-[2-({[3-bromo-1-(4-methoxybenzyl)-6-methyl-2-oxo-1,2-dihydropyridin-4-yl]oxy}methyl)benzyl]-3-[3-tert-butyl-1-(3-fluorophenyl)-1H-pyrazol-5-yl]urea], the IC50 amounted to 3.9 nM.
Next, `COc1ccc(Cn2c(C)cc(OCc3ccccc3CNC(=O)Nc3cc(C(C)(C)C)nn3-c3cccc(Cl)c3)c(Br)c2=O)cc1` [Example 98]: 4.23 nM; `COc1ccc(Cn2c(C)cc(OCc3ccccc3CNC(=O)Nc3cc(C(C)(C)C)nn3-c3cccc(OC)c3)c(Br)c2=O)cc1` [Example 99, 1-[2-({[3-bromo-1-(4-methoxybenzyl)-6-methyl-2-oxo-1,2-dihydropyridin-4-yl]oxy}methyl)benzyl]-3-[3-tert-butyl-1-(3-methoxyphenyl)-1H-pyrazol-5-yl]urea]: 3.49 nM; `Cc1ccc(-n2nc(C(C)(C)C)cc2NC(=O)NCc2ccccc2COc2cc(C)n(Cc3ccc(O)cc3)c(=O)c2Br)cc1` [Example 100, 1-[2-({[3-bromo-1-(4-hydroxybenzyl)-6-methyl-2-oxo-1,2-dihydropyridin-4-yl]oxy}methyl)benzyl]-3-[3-tert-butyl-1-(4-methylphenyl)-1H-pyrazol-5-yl]urea]: 4.59 nM.
For `COc1ccc(Cn2c(C)cc(OCc3ccccc3CNC(=O)Nc3cc(C(C)(C)C)nn3-c3ccc(C)cc3)c(Br)c2=O)cc1` [Example 101, 1-[2-({[3-bromo-1-(4-methoxybenzyl)-6-methyl-2-oxo-1,2-dihydropyridin-4-yl]oxy}methyl)benzyl]-3-[3-tert-butyl-1-(4-methylphenyl)-1H-pyrazol-5-yl]urea], the IC50 amounted to 8.19 nM.
Regarding `COc1ccc(Cn2c(C)cc(OCc3ccccc3CNC(=O)Nc3cc(C4CC4)nn3-c3ccccc3)c(Br)c2=O)cc1` [Example 102, 1-[2-({[3-bromo-1-(4-methoxybenzyl)-6-methyl-2-oxo-1,2-dihydropyridin-4-yl]oxy}methyl)benzyl]-3-(3-cyclopropyl-1-phenyl-1H-pyrazol-5-yl)urea], the IC50 is 182 nM.
With `Cc1cc(OCc2ccccc2CNC(=O)Nc2cc(C(C)(C)C)nn2-c2cccc(F)c2)c(Br)c(=O)n1Cc1ccccc1` [Example 103, 1-(2-{[(1-benzyl-3-bromo-6-methyl-2-oxo-1,2-dihydropyridin-4-yl)oxy]methyl}benzyl)-3-[3-tert-butyl-1-(3-fluorophenyl)-1H-pyrazol-5-yl]urea], the IC50 turned out to be 2.62 nM.
For `Cc1cc(OCc2ccccc2CNC(=O)Nc2cc(C(C)(C)C)nn2-c2ccccc2)c(Br)c(=O)n1Cc1ccccc1` [Example 104, 1-(2-{[(1-benzyl-3-bromo-6-methyl-2-oxo-1,2-dihydropyridin-4-yl)oxy]methyl}benzyl)-3-(3-tert-butyl-1-phenyl-1H-pyrazol-5-yl)urea], the IC50 is 4.52 nM.
Turning to `Cc1cc(OCc2ccccc2CNC(=O)Nc2cc(C(C)(C)C)nn2-c2ccc(F)cc2F)c(Br)c(=O)n1Cc1ccccc1` [Example 105, 1-(2-{[(1-benzyl-3-bromo-6-methyl-2-oxo-1,2-dihydropyridin-4-yl)oxy]methyl}benzyl)-3-[3-tert-butyl-1-(2,4-difluorophenyl)-1H-pyrazol-5-yl]urea], the IC50 was determined as 8.19 nM.
As to `Cc1ccc(-n2nc(C(C)(C)C)cc2NC(=O)NCc2ccccc2COc2cc(C)n(Cc3ccccc3)c(=O)c2Br)cc1` [Example 106, 1-(2-{[(1-benzyl-3-bromo-6-methyl-2-oxo-1,2-dihydropyridin-4-yl)oxy]methyl}benzyl)-3-[3-tert-butyl-1-(4-methylphenyl)-1H-pyrazol-5-yl]urea], the IC50 amounted to 4.59 nM.
In the case of `Cc1cc(OCc2ccccc2CNC(=O)Nc2cc(C(C)(C)C)nn2-c2cccc(Cl)c2)c(Br)c(=O)n1Cc1ccccc1` [Example 108, 1-(2-{[(1-benzyl-3-bromo-6-methyl-2-oxo-1,2-dihydropyridin-4-yl)oxy]methyl}benzyl)-3-[3-tert-butyl-1-(3-chlorophenyl)-1H-pyrazol-5-yl]urea], the IC50 amounted to 3.71 nM.
Take `COc1cccc(-n2nc(C(C)(C)C)cc2NC(=O)NCc2ccccc2COc2cc(C)n(Cc3ccccc3)c(=O)c2Br)c1` [Example 109, 1-(2-{[(1-benzyl-3-bromo-6-methyl-2-oxo-1,2-dihydropyridin-4-yl)oxy]methyl}benzyl)-3-[3-tert-butyl-1-(3-methoxyphenyl)-1H-pyrazol-5-yl]urea]: the IC50 amounted to 6.38 nM.
Regarding `CCc1c(OCc2ccccc2CNC(=O)Nc2cc(C(C)(C)C)nn2-c2ccc(C)cc2)ncn(Cc2ccccc2)c1=O` [Example 110, 1-(2-{[(1-benzyl-5-ethyl-6-oxo-1,6-dihydropyrimidin-4-yl)oxy]methyl}benzyl)-3-[3-tert-butyl-1-(4-methylphenyl)-1H-pyrazol-5-yl]urea], the IC50 worked out at 14.4 nM.
On to `CCc1c(OCc2ccccc2CNC(=O)Nc2cc(C(C)(C)C)nn2-c2ccccc2)ncn(Cc2ccccc2)c1=O` [Example 113, 1-(2-{[(1-benzyl-5-ethyl-6-oxo-1,6-dihydropyrimidin-4-yl)oxy]methyl}benzyl)-3-(3-tert-butyl-1-phenyl-1H-pyrazol-5-yl)urea], for which the IC50 was determined as 10 nM.
For the molecule `CCc1c(OCc2ccccc2CNC(=O)Nc2cc(C(C)(C)C)nn2-c2ccc(C)cc2)ncn(Cc2ccc(OC)cc2)c1=O` [Example 114, 1-[3-tert-butyl-1-(4-methylphenyl)-1H-pyrazol-5-yl]-3-[2-({[5-ethyl-1-(4-methoxybenzyl)-6-oxo-1,6-dihydropyrimidin-4-yl]oxy}methyl)benzyl]urea], the IC50 amounted to 16.3 nM.
